# Laboratory results published in patent US20240092799A1, “MNK INHIBITORS” (Hepagene Therapeutics (HK) Limited, priority 2020, published 2024).
# Legend:
# TMD-8 cell p-IF4E = experiment: p-eIF4E Signaling Cellular Assay (CisBio HTRF) in TMD-8 cells; format: cell-based; conditions: 40 min treatment
# Protocol: p-eIF4E Signaling Cellular Assay. Phosphorylated eIF4E is assayed using the CisBio p-Eif4E HTRF assay kit. Reagents and equipment used in the assay are listed below, followed by the protocol.
# Cell medium: RPMI 1640+10% FBS+1*PS, TMD-8 were cultured as recommended and assayed in exponential growth phase. • a) Plate 30 μL of cells in 384 white assay plate in appropriate medium and proper cell density (20 k/well) based on Optimization at 37° C. under 5% CO2 atmosphere • b) Dispense 90 nL of compounds diluted in DMSO and treat for 40 min at 37° C. under 5% CO2 atmosphere • c) Remove cell supernatant by flicking the plate • d) Add 16 μL of supplemented lysis buffer (1×) for 30 minutes at RT under shaking • e) Add 4 μL of premixed antibody solutions prepared in the detection buffer. Cover the plate with a plate sealer. Incubate 0/N at RT • f) Read the fluorescence emission at 665 nm and 620 nm on Envision • g) Data analysis • (1) Ratio […] signal is calculated for each well • (2) % Inhibition is calculated as follow:
# % inhibition=100−(Signalcmpd-SignalAve_PC)/(SignalAve_VC-SignalAve_PC)×100. • (3) Calculate IC50 and Plot effect-dose curve of cmpds:
# Calculate IC50 by fitting % Inhibition values and log of compound concentrations to nonlinear regression (dose response−variable slope) with Graphpad 8.0.
# Y=Bottom+(Top−Bottom)/(1+10^((Log IC50−X)*Hill Slope)) • X: log of Inhibitor concentration; Y: % Inhibition.
# MNK2 = MNK2 (Homo sapiens (Human), UniProt Q9HBH9); experiment: MNK Biochemical Enzymatic Assay (ADP-Glo), MNK2 binding assay
# MNK2, sequence (Q9HBH9 whole entry): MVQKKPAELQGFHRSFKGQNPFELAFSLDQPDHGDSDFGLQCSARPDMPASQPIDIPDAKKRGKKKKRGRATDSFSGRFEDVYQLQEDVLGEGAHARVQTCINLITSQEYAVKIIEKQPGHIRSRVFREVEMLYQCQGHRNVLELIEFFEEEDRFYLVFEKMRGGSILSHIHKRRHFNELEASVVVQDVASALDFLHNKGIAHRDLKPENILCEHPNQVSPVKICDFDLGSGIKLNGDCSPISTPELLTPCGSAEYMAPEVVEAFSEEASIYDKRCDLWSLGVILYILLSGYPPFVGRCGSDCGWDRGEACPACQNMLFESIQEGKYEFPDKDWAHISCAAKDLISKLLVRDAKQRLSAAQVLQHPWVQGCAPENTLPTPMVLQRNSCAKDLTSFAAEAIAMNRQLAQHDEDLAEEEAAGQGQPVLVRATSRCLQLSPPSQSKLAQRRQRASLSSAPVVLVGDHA
# In short: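 Human MNK1 or MNK2 was preincubated with a 10-point, 1:3 serial dilution of compound for 15 min at 25 °C. Substrate was then added and the reaction ran 60 min at 25 °C. ADP formed was read by ADP-Glo luminescence, and IC50 came from non-linear regression.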
"IC50 (TMD-8 cell p-IF4E; Homo sapiens, TMD8, 40 min)",IC50 (MNK2),IC50 (TMD-8 cell p-IF4E),Compound
100 to 1000 nM,0.1 to 10 nM,,"O=C1NC2(CCCCC2)c2cc(Nc3cc(NC(=O)C4CCOC4)ncn3)sc21 (centres unmarked) [Compound XXIV-I, N-(6-((6′-oxo-5′,6′-dihydrospiro[cyclohexane-1,4′-thieno[2,3-c]pyrrol]-2′-yl)amino)pyrimidin-4-yl)tetrahydrofuran-3-carboxamide]"
0.1 to 10 nM,0.1 to 10 nM,,"Cc1cc(Nc2cc(N[C@H]3CCOC3)ncn2)[n+]([O-])c2c1C(=O)NC21CCCCC1 [Compound XXIX-A, (S)-4′-methyl-5′-oxo-2′-((6-((tetrahydrofuran-3-yl)amino)pyrimidin-4-yl)amino)-5′,6′-dihydrospiro[cyclohexane-1,7′-pyrrolo[3,4-b]pyridine] 1′-oxide]"
10 to 100 nM,0.1 to 10 nM,,"Cc1cc(Nc2cc(NC(=O)C3CCCO3)ncn2)[n+]([O-])c2c1C(=O)NC21CCCCC1 (centres unmarked) [Compound XXIX-AW, 4′-methyl-5′-oxo-2′-((6-(tetrahydrofuran-2-carboxamido)pyrimidin-4-yl)amino)-5′,6′-dihydrospiro[cyclohexane-1,7′-pyrrolo[3,4-b]pyridine] 1′-oxide]"
0.1 to 10 nM,0.1 to 10 nM,,"Cc1cc(Nc2cc(Nc3ccc(N4CCN(C)CC4)cn3)ncn2)[n+]([O-])c2c1C(=O)NC21CCCCC1 [Compound XXIX-AO, 4′-methyl-2′-[(6-{[5-(4-methylpiperazin-1-yl)pyridin-2-yl]amino}pyrimidin-4-yl)amino]-5′-oxo-5′,6′-dihydrospiro[cyclohexane-1,7′-pyrrolo[3,4-b]pyridin]-1′-ium-1′-olate]"
10 to 100 nM,0.1 to 10 nM,,"O=C1NC2(CCCCC2)c2cc(Nc3cc(Nc4ccccn4)ncn3)sc21 [Compound XXIII-C, 2′-((6-(Pyridin-2-ylamino)pyrimidin-4-yl)amino)spiro[cyclohexane-1,4′-thieno[2,3-c]pyrrol]-6′(5′H)-one]"
10 to 100 nM,0.1 to 10 nM,,"Cc1cccc(Nc2cc(Nc3cc(C)c4c([n+]3[O-])C3(CCCCC3)NC4=O)ncn2)n1 [Compound XXIX-AL, 4′-methyl-2′-((6-((6-methylpyridin-2-yl)amino)pyrimidin-4-yl)amino)-5′-oxo-5′,6′-dihydrospiro[cyclohexane-1,7′-pyrrolo[3,4-b]pyridine] 1′-oxide]"
10 to 100 nM,0.1 to 10 nM,,"O=C1NC2(CCCCC2)c2c1sc(Nc1cc(N[C@H]3CCOC3)ncn1)c2Cl [Compound XXI-A, (S)-3′-chloro-2′-((6-((tetrahydrofuran-3-yl)amino)pyrimidin-4-yl)amino)spiro[cyclohexane-1,4′-thieno[2,3-c]pyrrol]-6′(5′H)-one]"
0.1 to 10 nM,0.1 to 10 nM,,"Cc1cc(Nc2cc(Nc3ccn(CCO)n3)ncn2)[n+]([O-])c2c1C(=O)NC21CCCCC1 [Compound XXIX-AT, 2′-((6-((1-(2-hydroxyethyl)-1H-pyrazol-3-yl)amino)pyrimidin-4-yl)amino)-4′-methyl-5′-oxo-5′,6′-dihydrospiro[cyclohexane-1,7′-pyrrolo[3,4-b]pyridine] 1′-oxide]"
10 to 100 nM,10 to 100 nM,,"O=C1NC2(CCCCC2)c2cc(Nc3cc(NC4CCCC4)ncn3)sc21 [Compound XXIII-N, 2′-((6-(Cyclopentylamino)pyrimidin-4-yl)amino)spiro[cyclohexane-1,4′-thieno[2,3-c]pyrrol]-6′(5′H)-one]"
10 to 100 nM,0.1 to 10 nM,,"O=C1NC2(CCCCC2)c2nc(Nc3cc(NC(=O)C4CCCC4)ncn3)sc21 [Compound XXVIII-C, N-(6-((6′-oxo-5′,6′-dihydrospiro[cyclohexane-1,4′-pyrrolo[3,4-d]thiazol]-2′-yl)amino)pyrimidin-4-yl)cyclopentanecarboxamide]"
0.1 to 10 nM,0.1 to 10 nM,,"Cc1cc(Nc2cc(Nc3ccn(C(F)(F)F)n3)ncn2)[n+]([O-])c2c1C(=O)NC21CCCCC1 [Compound XXIX-AF, 4′-methyl-5′-oxo-2′-[(6-{[1-(trifluoromethyl)pyrazol-3-yl]amino}pyrimidin-4-yl)amino]-6′H-spiro[cyclohexane-1,7′-pyrrolo[3,4-b]pyridin]-1′-ium-1′-olate]"
0.1 to 10 nM,0.1 to 10 nM,,"Cc1cc(Nc2cc(Nc3ccon3)ncn2)[n+]([O-])c2c1C(=O)NC21CCCCC1 [Compound XXIX-AAD, 2′-((6-(isoxazol-3-ylamino)pyrimidin-4-yl)amino)-4′-methyl-5′-oxo-5′,6′-dihydrospiro[cyclohexane-1,7′-pyrrolo[3,4-b]pyridine] 1′-oxide]"
10 to 100 nM,0.1 to 10 nM,,"CC(=O)N(C)c1ccnc(Nc2cc(Nc3nc4c(s3)C(=O)NC43CCCCC3)ncn2)c1 [Compound XXVIII-P, N-methyl-N-(2-((6-((6′-oxo-5′,6′-dihydrospiro[cyclohexane-1,4′-pyrrolo[3,4-d]thiazol]-2′-yl)amino)pyrimidin-4-yl)amino)pyridin-4-yl)acetamide]"
10 to 100 nM,0.1 to 10 nM,,"O=C1NC2(CCCCC2)c2nc(Nc3cc(N[C@H]4CCOC4)ncn3)sc21 [Compound XXVIII, (S)-2′-((6-((tetrahydrofuran-3-yl)amino)pyrimidin-4-yl)amino)spiro[cyclohexane-1,4′-pyrrolo[3,4-d]thiazol]-6′(5′H)-one]"
100 to 1000 nM,0.1 to 10 nM,,"O=C1NC2(CCCCC2)c2cc(Nc3cc(NC(=O)C4CCCC4)ncn3)sc21 [Compound XX-D, N-(6-((6′-Oxo-5′,6′-dihydrospiro[cyclohexane-1,4′-thieno[2,3-c]pyrrol]-2′-yl)amino)pyrimidin-4-yl)cyclopentanecarboxamide]"
,0.1 to 10 nM,10 to 100 nM,"Cc1cc(Nc2cc(N[C@H]3C[C@@](C)(O)C3)ncn2)[n+]([O-])c2c1C(=O)NC21CCCCC1 [Compound XXIX-AAC, 4′-methyl-5′-oxo-2′-[(6-{[trans-3-hydroxy-3-methylcyclobutyl]amino}pyrimidin-4-yl)amino]-6′H-spiro[cyclohexane-1,7′-pyrrolo[3,4-b]pyridin]-1′-ium-1′-olate]"
100 to 1000 nM,0.1 to 10 nM,,"Cn1cc(Nc2cc(Nc3cc4c(s3)C(=O)NC43CCCCC3)ncn2)cn1 [Compound XXIV-K, 2′-((6-((1-methyl-1H-pyrazol-4-yl)amino)pyrimidin-4-yl)amino)spiro[cyclohexane-1,4′-thieno[2,3-c]pyrrol]-6′(5′H)-one]"
100 to 1000 nM,0.1 to 10 nM,,"O=C1NC2(CCCCC2)c2cc(Nc3cc(NCCO)ncn3)sc21 [Compound XXIII-J, 2′-((6-((2-Hydroxyethyl)amino)pyrimidin-4-yl)amino)spiro[cyclohexane-1,4′-thieno[2,3-c]pyrrol]-6′(5′H)-one]"
0.1 to 10 nM,0.1 to 10 nM,,"Cc1cc(Nc2cc(Nc3ccccn3)ncn2)[n+]([O-])c2c1C(=O)NC21CCCCC1 [Compound XXIX-D, 4′-methyl-5′-oxo-2′-((6-(pyridin-2-ylamino)pyrimidin-4-yl)amino)-5′,6′-dihydrospiro[cyclohexane-1,7′-pyrrolo[3,4-b]pyridine] 1′-oxide]"
10 to 100 nM,0.1 to 10 nM,,"COc1c(N)ncnc1Nc1nc2c(s1)C(=O)NC21CCCCC1 [Compound XXVIII-G, 2′-((6-amino-5-methoxypyrimidin-4-yl)amino)spiro[cyclohexane-1,4′-pyrrolo[3,4-d]thiazol]-6′(5′H)-one]"
0.1 to 10 nM,0.1 to 10 nM,,"O=C1NC2(CCCCC2)c2nc(Nc3ncnc4[nH]ccc34)sc21 [Compound XXVIII-A, 2′-((7H-pyrrolo[2,3-d]pyrimidin-4-yl)amino)spiro[cyclohexane-1,4′-pyrrolo[3,4-d]thiazol]-6′(5′H)-one]"
0.1 to 10 nM,0.1 to 10 nM,,"Cc1cc(Nc2cc(Nc3ccn(C(C)C)n3)ncn2)[n+]([O-])c2c1C(=O)NC21CCCCC1 [Compound XXIX-AAQ, 2′-((6-((1-isopropyl-1H-pyrazol-3-yl)amino)pyrimidin-4-yl)amino)-4′-methyl-5′-oxo-5′,6′-dihydrospiro[cyclohexane-1,7′-pyrrolo[3,4-b]pyridine] 1′-oxide]"
100 to 1000 nM,0.1 to 10 nM,,"O=C1NC2(CCCCC2)c2cc(Nc3cc(N[C@H]4CCCOC4)ncn3)sc21 [Compound XXIV-A, (S)-2′-((6-((tetrahydro-2H-pyran-3-yl)amino)pyrimidin-4-yl)amino)spiro[cyclohexane-1,4′-thieno[2,3-c]pyrrol]-6′(5′H)-one]"
0.1 to 10 nM,0.1 to 10 nM,,"O=C1NC2(CCCCC2)c2nc(Nc3cc(Nc4ccc(N5CCOCC5)cn4)ncn3)sc21 [Compound XXVIII-Q, 2′-((6-((5-morpholinopyridin-2-yl)amino)pyrimidin-4-yl)amino)spiro[cyclohexane-1,4′-pyrrolo[3,4-d]thiazol]-6′(5′H)-one]"
100 to 1000 nM,0.1 to 10 nM,,"O=C1NC2(CCCCC2)c2nc(Nc3cc(N[C@H]4C[C@@H](O)C4)ncn3)sc21 [Compound XXVIII-O, Cis-2′-((6-(((1s,3s)-3-hydroxycyclobutyl)amino)pyrimidin-4-yl)amino)spiro[cyclohexane-1,4′-pyrrolo[3,4-d]thiazol]-6′(5′H)-one]"
